US12685735B2 (Foghorn Therapeutics Inc., priority 2020, dated 2026)
Where two headings read alike, the source gives them in different places.

Assays:
[1] = target: BRG-1 (Homo sapiens, UniProt P51532); test: ATPase catalytic activity assay of BRG-1 (ADP-Glo); assay type: biochemical; settings: ATPase catalytic activity, ADP-Glo; for Emax: read-out: BRG1 Max % Inhibition
Protocol: (§1) The ATPase catalytic activity of BRM or BRG-1 was measured by the in vitro biochemical assay using ADP-Glo™ (Promega, V9102). The ADP-Glo™ kinase assay is performed in two steps once the reaction is complete. The first step is to deplete any unconsumed ATP in the reaction. The second step is to convert the reaction product ADP to ATP, which will be utilized by the luciferase to generate luminesce and be detected by a luminescence reader, such as Envision.
(§2) Then following addition of 5 μL of ADP-Glo™ Reagent provided in the kit, the reaction incubates at room temperature for 40 minutes. Then 10 μL of Kinase Detection Reagent provided in the kit is added to convert ADP to ATP, and the reaction incubates at room temperature for 60 minutes. Finally, luminescence measurement is collected with a plate-reading luminometer, such as Envision.
as §1, with “The” for “The ATPase catalytic activity of BRM or BRG-1 was measured by the in vitro biochemical assay using ADP-Glo™ (Promega, V9102). The”

[2] = target: BRM (Homo sapiens, UniProt P51531); test: ATPase catalytic activity assay of BRM (ADP-Glo); assay type: biochemical
Protocol: as §1, §2
as §1, with “The” for “The ATPase catalytic activity of BRM or BRG-1 was measured by the in vitro biochemical assay using ADP-Glo™ (Promega, V9102). The”

BRG-1, sequence (P51532 whole entry): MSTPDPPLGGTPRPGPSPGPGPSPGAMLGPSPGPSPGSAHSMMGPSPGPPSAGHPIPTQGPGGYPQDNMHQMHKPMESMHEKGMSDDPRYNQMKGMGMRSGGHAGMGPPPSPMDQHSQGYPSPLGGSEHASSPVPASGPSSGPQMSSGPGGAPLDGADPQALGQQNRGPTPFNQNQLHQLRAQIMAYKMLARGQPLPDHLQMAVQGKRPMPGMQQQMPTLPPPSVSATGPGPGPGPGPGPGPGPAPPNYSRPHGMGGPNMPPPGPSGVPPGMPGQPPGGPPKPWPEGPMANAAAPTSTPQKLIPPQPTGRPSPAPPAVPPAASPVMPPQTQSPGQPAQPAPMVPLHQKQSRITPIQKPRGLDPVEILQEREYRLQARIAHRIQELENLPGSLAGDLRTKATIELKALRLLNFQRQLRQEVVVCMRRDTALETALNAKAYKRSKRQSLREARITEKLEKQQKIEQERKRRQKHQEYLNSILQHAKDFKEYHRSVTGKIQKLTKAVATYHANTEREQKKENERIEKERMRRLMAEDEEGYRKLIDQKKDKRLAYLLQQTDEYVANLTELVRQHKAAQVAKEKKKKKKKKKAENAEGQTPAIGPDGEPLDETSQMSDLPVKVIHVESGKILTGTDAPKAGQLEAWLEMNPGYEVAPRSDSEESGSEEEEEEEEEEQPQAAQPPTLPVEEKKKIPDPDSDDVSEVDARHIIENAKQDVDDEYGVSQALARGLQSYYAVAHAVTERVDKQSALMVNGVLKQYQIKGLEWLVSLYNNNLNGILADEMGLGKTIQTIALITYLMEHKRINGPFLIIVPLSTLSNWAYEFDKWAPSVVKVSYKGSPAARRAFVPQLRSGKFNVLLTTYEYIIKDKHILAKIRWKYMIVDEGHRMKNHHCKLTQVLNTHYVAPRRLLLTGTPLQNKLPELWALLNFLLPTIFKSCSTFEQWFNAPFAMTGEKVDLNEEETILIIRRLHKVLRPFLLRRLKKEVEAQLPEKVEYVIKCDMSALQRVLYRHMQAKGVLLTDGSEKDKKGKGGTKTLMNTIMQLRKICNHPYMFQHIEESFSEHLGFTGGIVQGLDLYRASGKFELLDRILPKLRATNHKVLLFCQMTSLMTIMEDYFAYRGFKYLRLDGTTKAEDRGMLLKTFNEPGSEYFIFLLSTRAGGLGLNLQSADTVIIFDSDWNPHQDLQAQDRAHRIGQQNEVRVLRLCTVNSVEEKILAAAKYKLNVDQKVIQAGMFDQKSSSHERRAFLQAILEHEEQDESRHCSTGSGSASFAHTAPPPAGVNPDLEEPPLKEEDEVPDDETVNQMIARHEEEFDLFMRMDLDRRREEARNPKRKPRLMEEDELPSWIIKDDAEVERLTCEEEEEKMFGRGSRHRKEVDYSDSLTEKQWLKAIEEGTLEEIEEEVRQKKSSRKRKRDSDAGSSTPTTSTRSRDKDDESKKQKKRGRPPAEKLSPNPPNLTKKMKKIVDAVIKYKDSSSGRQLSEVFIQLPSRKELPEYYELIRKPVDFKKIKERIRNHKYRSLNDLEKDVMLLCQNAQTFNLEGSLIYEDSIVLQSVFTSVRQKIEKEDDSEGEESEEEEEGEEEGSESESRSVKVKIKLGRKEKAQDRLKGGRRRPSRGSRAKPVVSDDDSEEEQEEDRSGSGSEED
BRM, sequence (P51531 whole entry): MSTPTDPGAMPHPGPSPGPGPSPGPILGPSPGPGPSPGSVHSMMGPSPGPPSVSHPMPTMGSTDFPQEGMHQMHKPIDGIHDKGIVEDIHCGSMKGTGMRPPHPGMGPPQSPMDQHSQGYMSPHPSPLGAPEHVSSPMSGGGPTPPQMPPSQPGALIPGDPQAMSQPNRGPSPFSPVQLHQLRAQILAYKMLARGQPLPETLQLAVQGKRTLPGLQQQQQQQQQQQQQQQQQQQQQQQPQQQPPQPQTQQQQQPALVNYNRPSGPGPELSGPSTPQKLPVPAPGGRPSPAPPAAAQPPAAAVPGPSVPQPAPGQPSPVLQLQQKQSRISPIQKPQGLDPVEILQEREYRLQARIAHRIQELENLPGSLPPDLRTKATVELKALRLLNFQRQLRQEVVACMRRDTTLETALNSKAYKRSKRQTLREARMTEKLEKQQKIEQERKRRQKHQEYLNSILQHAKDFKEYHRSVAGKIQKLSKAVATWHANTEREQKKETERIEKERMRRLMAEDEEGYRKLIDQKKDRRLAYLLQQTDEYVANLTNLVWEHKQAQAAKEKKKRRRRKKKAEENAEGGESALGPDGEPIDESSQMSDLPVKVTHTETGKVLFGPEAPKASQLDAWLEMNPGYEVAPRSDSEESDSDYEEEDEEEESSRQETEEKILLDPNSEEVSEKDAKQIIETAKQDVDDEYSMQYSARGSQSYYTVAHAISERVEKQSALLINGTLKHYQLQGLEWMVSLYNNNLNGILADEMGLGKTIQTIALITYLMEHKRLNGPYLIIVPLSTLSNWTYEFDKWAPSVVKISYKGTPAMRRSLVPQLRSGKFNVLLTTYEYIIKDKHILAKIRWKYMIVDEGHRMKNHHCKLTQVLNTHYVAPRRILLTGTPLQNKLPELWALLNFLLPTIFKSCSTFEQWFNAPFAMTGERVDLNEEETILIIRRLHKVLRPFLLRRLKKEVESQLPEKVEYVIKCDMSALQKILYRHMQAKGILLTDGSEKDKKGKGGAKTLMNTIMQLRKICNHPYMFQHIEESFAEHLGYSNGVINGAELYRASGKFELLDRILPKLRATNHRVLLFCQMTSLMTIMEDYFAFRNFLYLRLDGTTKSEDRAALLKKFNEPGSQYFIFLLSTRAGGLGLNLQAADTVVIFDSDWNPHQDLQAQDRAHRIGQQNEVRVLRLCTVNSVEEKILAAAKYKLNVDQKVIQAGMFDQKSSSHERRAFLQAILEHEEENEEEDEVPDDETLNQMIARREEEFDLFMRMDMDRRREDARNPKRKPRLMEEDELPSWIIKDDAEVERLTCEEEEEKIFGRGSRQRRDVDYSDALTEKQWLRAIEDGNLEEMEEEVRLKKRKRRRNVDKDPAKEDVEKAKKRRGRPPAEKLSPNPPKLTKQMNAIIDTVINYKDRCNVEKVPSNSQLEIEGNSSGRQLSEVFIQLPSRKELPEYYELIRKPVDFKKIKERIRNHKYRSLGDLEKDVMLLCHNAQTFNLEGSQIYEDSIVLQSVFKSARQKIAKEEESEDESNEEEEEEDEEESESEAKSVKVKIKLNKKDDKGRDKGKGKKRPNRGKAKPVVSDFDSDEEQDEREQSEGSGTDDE

| Compound | IC50 ([1]; read-out: BRG1 IC50 (μM)*) [µM] | Emax [1] [%] | BRM Max % Inhibition [2] [%] | IC50 ([2]; read-out: BRM IC50 (μM)*) [µM] | IC50 ([1]; 30 nM BRG-1, 400 μM ATP, read-out: BRG1 IC50 (μM)*) [µM] | Emax ([1]; 30 nM BRG-1, 400 μM ATP) [%] | BRM Max % Inhibition ([2]; 30 nM BRM, 400 μM ATP) [%] | IC50 ([2]; 30 nM BRM, 400 μM ATP, read-out: BRM IC50 (μM)*) [µM] | IC50 ([1]; BRG1 IC50 (μM)*) [µM] | IC50 ([2]; BRM IC50 (μM)*) [µM] |
| --- | --- | --- | --- | --- | --- | --- | --- | --- | --- | --- |
| CC(C)(CN)c1cccc(C(=O)NCC(=O)Nc2nc(-c3cccc(-c4cc(C#N)cc(C#N)c4)c3)cs2)c1 [Compound 50, 3-(1-amino-2-methylpropan-2-yl)-N-(2-((4-(3′,5′-dicyano-[1,1′-biphenyl]-3-yl)thiazol-2-yl)amino)-2-oxoethyl)benzamide] | 1 to 5 | > 70 | >90 | 0.1 to 1 |  |  |  |  |  |  |
| C[C@@H]1CN(c2cccc(-c3csc(NC(=O)CNC(=O)c4cccc([C@@]5(C)COC[C@@H]5O)c4)n3)n2)C[C@H](C)O1 (stereo in doubt) [Compound 413, N-(2-((4-(6-((cis)-2,6-dimethylmorpholino)pyridin-2-yl)thiazol-2-yl)amino)-2-oxoethyl)-3-((cis)-4-hydroxy-3-methyltetrahydrofuran-3-yl)benzamide] |  |  |  |  | 1 to 5 | > 95 | >95 | 0.1 to 1 |  |  |
| C[C@@]1(C#N)COCc2ccc(C(=O)NCC(=O)Nc3nc(-c4cccc(N5CCC56COC6)c4)cs3)cc21 [Compound 328, (R)-N-(2-((4-(3-(6-oxa-1-azaspiro[3.3]heptan-1-yl)phenyl)thiazol-2-yl)amino)-2-oxoethyl)-4-cyano-4-methylisochromane-6-carboxamide] | 0.1 to 1 | > 95 | >95 | < 0.1 |  |  |  |  |  |  |
| COC(=O)N1CCCC(c2csc(NC(=O)CNC(=O)c3ccc4c(c3)[C@](C)(F)COC4)n2)C1 (stereo in doubt) [Compound 302, methyl (S)-3-(2-(2-((S)-4-fluoro-4-methylisochromane-6-carboxamido)acetamido)thiazol-4-yl)piperidine-1-carboxylate] | 0.1 to 1 | > 95 | >95 | < 0.1 |  |  |  |  |  |  |
| C[C@@]1(C#N)COCc2ccc(C(=O)NCC(=O)Nc3nc(-c4cccc(N5CC6(CCO6)C5)c4)cs3)cc21 [Compound 348, (R)-N-(2-((4-(3-(1-oxa-6-azaspiro[3.3]heptan-6-yl)phenyl)thiazol-2-yl)amino)-2-oxoethyl)-4-cyano-4-methylisochromane-6-carboxamide] | 0.1 to 1 | > 95 | >95 | < 0.1 |  |  |  |  |  |  |
| Cc1cc(C(=O)NCC(=O)Nc2nc(-c3cccc(-c4ccncc4)c3)cs2)cc(S(=O)(=O)C(C)C)c1 [Compound 20, 3-(isopropylsulfonyl)-5-methyl-N-(2-oxo-2-((4-(3-(pyridin-4-yl)phenyl)thiazol-2-yl)amino)ethyl)benzamide] | > 5 | < 30 | >60 | 0.1 to 1 |  |  |  |  |  |  |
| C[C@@H]1CN(c2cccc(-c3csc(NC(=O)CNC(=O)c4cc(C(C)(C)C)ccn4)n3)c2)C[C@H](C)O1 [Compound 202, 4-tert-butyl-N-[2-[[4-[3-[(cis)-2,6-dimethylmorpholin-4-yl]phenyl]thiazol-2-yl]amino]-2-oxo-ethyl]pyridine-2-carboxamide] | 1 to 5 | > 80 | >90 | 0.1 to 1 |  |  |  |  |  |  |
| C[C@@H]1CN(c2cccc(-c3csc(NC(=O)CNC(=O)c4cccc(C5(F)COCC5O)c4)n3)n2)C[C@H](C)O1 (stereo partly drawn) [Compound 304, N-(2-((4-(6-((cis)-2,6-dimethylmorpholino)pyridin-2-yl)thiazol-2-yl)amino)-2-oxoethyl)-3-(3-fluoro-4-hydroxytetrahydrofuran-3-yl)benzamide] | 1 to 5 | > 95 | >95 | 0.1 to 1 |  |  |  |  |  |  |
| CC(C)S(=O)(=O)c1cccc(C(=O)NCC(=O)Nc2nc(-c3cccc(-c4cc(Cl)cc(Cl)c4)c3)cs2)c1 [Compound 30, N-(2-((4-(3′,5′-dichloro-[1,1′-biphenyl]-3-yl)thiazol-2-yl)amino)-2-oxoethyl)-3-(isopropylsulfonyl)benzamide] | 1 to 5 |  | >90 | 0.1 to 1 |  |  |  |  |  |  |
| COc1cc(-c2csc(NC(=O)CNC(=O)c3ccc4c(c3)[C@](C)(C#N)COC4)n2)ccn1 [Compound 400, (R)-4-cyano-N-(2-((4-(2-methoxypyridin-4-yl)thiazol-2-yl)amino)-2-oxoethyl)-4-methylisochromane-6-carboxamide] | 0.1 to 1 | > 95 | >95 | < 0.1 |  |  |  |  |  |  |
| Cn1cc(-c2cccc(-c3csc(NC(=O)CNC(=O)c4cccc(C(C)(C)CO)c4)n3)c2)cn1 [Compound 104] | 1 to 5 | > 70 | >90 | 0.1 to 1 |  |  |  |  |  |  |
| COc1cccc(-c2csc(NC(=O)CNC(=O)c3ccc4c(c3)[C@](C)(C#N)COC4)n2)c1F [Compound 402, (R)-4-cyano-N-(2-((4-(2-fluoro-3-methoxyphenyl)thiazol-2-yl)amino)-2-oxoethyl)-4-methylisochromane-6-carboxamide] | < 0.1 | > 95 | >95 | < 0.1 |  |  |  |  |  |  |
| C[C@@H]1CN(c2cccc(-c3csc(NC(=O)CNC(=O)c4cnc5c(c4)[C@](C)(CO)CC5)n3)c2)C[C@H](C)O1 [Compound 143, (R)-N-(2-((4-(3-((cis)-2,6-dimethylmorpholino)phenyl)thiazol-2-yl)amino)-2-oxoethyl)-5-(hydroxymethyl)-5-methyl-6,7-dihydro-5H-cyclopenta[b]pyridine-3-carboxamide] | > 5 | > 60 | >80 | 0.1 to 1 |  |  |  |  |  |  |
| Cc1cc(-c2cccc(-c3csc(NC(=O)CNC(=O)c4cccc(S(=O)(=O)C(C)C)c4)n3)c2)cc(C)n1 [Compound 18, N-(2-((4-(3-(2,6-dimethylpyridin-4-yl)phenyl)thiazol-2-yl)amino)-2-oxoethyl)-3-(isopropylsulfonyl)benzamide] | < 0.1 | > 95 | >95 | < 0.1 |  |  |  |  |  |  |
| Cc1cc(-c2cccc(-c3csc(NC(=O)CNC(=O)c4ccc5c(c4)[C@@](C)(C#N)CC5)n3)n2)ncn1 [Compound 266, (3S)-3-cyano-3-methyl-N-[2-[[4-[6-(6-methylpyrimidin-4-yl)-2-pyridyl]thiazol-2-yl]amino]-2-oxo-ethyl]indane-5-carboxamide] | > 5 | > 30 | >60 | 1 to 5 |  |  |  |  |  |  |
| C[C@@]1(C#N)COCc2ccc(C(=O)NCC(=O)Nc3nc(-c4cccc([C@@]56CCOC[C@@H]5C6)n4)cs3)cc21 [Compound 292, (R)-N-(2-((4-(6-((1R,6S)-3-oxabicyclo[4.1.0]heptan-6-yl)pyridin-2-yl)thiazol-2-yl)amino)-2-oxoethyl)-4-cyano-4-methylisochromane-6-carboxamide] | 0.1 to 1 | > 95 | >95 | < 0.1 |  |  |  |  |  |  |
| CC(C)S(=O)(=O)c1cccc(C(=O)NCC(=O)Nc2nc(-c3cccc(-c4cccc(Cl)c4)c3)cs2)c1 [Compound 28, N-(2-((4-(3′-chloro-[1,1′-biphenyl]-3-yl)thiazol-2-yl)amino)-2-oxoethyl)-3-(isopropylsulfonyl)benzamide] |  |  | >80 |  |  |  |  |  | 1 to 5 | 0.1 to 1 |
| CC(C)(O)c1cccc(C(=O)NCC(=O)Nc2nc(-c3cccc(-c4ccncc4)c3)cs2)c1 [Compound 77] | 0.1 to 1 | > 80 | >90 | 0.1 to 1 |  |  |  |  |  |  |
